The subject of experiment [1] is JEG-3 cells. The experiment can be described thus: JEG-3 protocol: [3H]-thymidine incorporation (leptin assay in non-recombinant system). The class given is cell-based. As to conditions: FIG. 4. The protocol: In JEG-3 cells (choriocarcinoma cell line) leptin is able to stimulate proliferation up to 3 fold (Biol. Reprod. (2007) 76: 203-10). […] The radioactivity incorporated by the cells is an index of their proliferative activity and is measured in counts per minute (CPM) with a liquid scintillation beta counter.
This finding can be applied to test whether a compound is able to either reproduce the effect of leptin on cell proliferation (leptin receptor agonist mimetic) (i.e., a given compound will cause an increase in incorporated [^3H]-Thymidine by the cells) or to inhibit the effect of leptin (antagonistic effect) by preventing the leptin-mediated increase in [^3H]-thymidine incorporation.
This approach has the advantage of using a non-recombinant system and has reasonable reproducibility and robustness.

In experiment [2] the test system is JEG-3 cells. As to conditions: Biol. Reprod. (2007) 76: 203-10; cited from earlier work.

Take “Leptin: a hormone synthesized in fat cells that is believed to act in the hypothesis to reduce food intake and body weight”: the EC50 in experiment [1] (JEG-3 cells (choriocarcinoma cell line), read-out: EC50, concentration-dependent increase in [3H]-thymidine incorporation) is 2.1 nM. In addition, the “concentration of maximal effect on [3H]-thymidine incorporation” value in experiment [1] (JEG-3 cells) is on record as 100 nM. Also, in experiment [2], the stimulation of proliferation result is “up to 3 fold”.
